Assay results taken from US20040058425A1, “Crystal structure” (priority 2001, published 2004).

Columns and labels:
PDHK [1] = assay: Assay to measure whether compounds inhibit PDHK activity (kinase reaction with porcine PDH and MgATP, then residual PDH activity by NAD reduction at 340 nm); format: biochemical; conditions: result in words
Description: Compounds were assessed for inhibition of PDHK in an assay adapted from Espinal, J. et al (1995) Drug Development Res. 35, 130-136. In the first part of the assay, compounds were incubated with porcine PDH (Sigma P-7032) and MgATP, and the reaction was stopped after defined intervals. In the second part of the assay, the residual PDH activity was measured by monitoring the rate of reduction of NAD at 340 nm.
The assay was performed in flat-bottom 96-well microtitre plates, using a final volume of 50 μl for the first part of the assay (kinase reaction), and 250 μl for the PDH reaction. At first, 10 μl test compound in a suitable diluent, 20 μl kinase buffer (20 mM potassium phosphate, pH7.0, 4 mM MgCl2, 4 mM dithiothreitol) and 10 μl PDH (Sigma, P-7032, diluted with water to a final concentration of 1.83 mg/ml) were mixed and incubated for 10 min; then 10 μl ATP solution (125 μM in kinase buffer) was added to start the reaction.
The incubations were done at 30° C. The kinase reaction was terminated after defined intervals (usually 0, 10, 20, 30, 60, and 90 min) by initiating the PDH reaction. […] Kinetic readings were then taken at 340 nm conducted at 12 sec intervals for 20 min with shaking for 1 sec before each reading was taken, in a SpectraMax plate reader. […]

PDHK [2] = assay: Kinase activity of PDHK using a PDHK specific substrate peptide; format: biochemical; conditions: data not shown

Molecule	ATP dependent inhibition of the PDH complex (PDHK [1])	inhibition of the kinase activity of PDHK (PDHK [2])
CC1CN(C(=O)C(C)(O)C(F)(F)F)C(C)CN1C(=O)c1ccc(C#N)cc1 (stereo not shown) [Compound 1]	prevent ATP dependent inhibition of the PDH complex	do not inhibit the kinase activity of PDHK
N-{4-[(ethylanilino)sulfonyl]-2-methylphenyl}-3,3,3-trifluoro-2-hydroxy-2-methylpropanamide [Compound 2]	prevent ATP dependent inhibition of the PDH complex	do not inhibit the kinase activity of PDHK
